Measured values reported in patent publication US20140378531A1, “INHIBITION OF PATTERN RECOGNITION RECEPTORS IN PANCREATIC CANCER TREATMENT USING TLR INHIBITORS” (NEW YORK UNIVERSITY, priority 2012, published 2014).

Legend:
Assay type in all cases: in vivo
[1] = L-arginine induced pancreatic injury; conditions: WT mice, L-arginine for one week
MAP Kinase = MAP Kinase or NF-κB blockade in caerulein + ssRNA40 pancreatitis; conditions: mice, caerulein for 3 weeks + ssRNA40 + pathway blockade
Method: FIG. 15. TLR7 agonists exacerbate pancreatic inflammation via NF-κB and MAP Kinase dependent mechanisms. Mice were treated for 3 weeks with caerulein to induce pancreatitis.
In vivo TLR7 ligation was accomplished by thrice weekly i.p administration of selective TLR7 agonists (ssRNA40, E. coli RNA, or Adenine analogue, all 100 μg/kg; Invivogen, San Diego, Calif.). TLR7 blockade was accomplished using an oligonucleotide inhibitor of TLR7 (Guiducci et al., 2010) (IRS661, 100 μg, 3× per week; Dynavax, Berkeley, Calif.). Bone marrow chimeric animals were created by irradiating mice ([…]) followed by i.v. bone marrow transfer (1×10^7 cells) from non-irradiated donors as described (Bedrosian et al., 2011) Chimeric mice were employed in experiments 7 weeks later. In selected experiments, to accelerate carcinogenesis in p48Cre;Kras^G12D mice, two doses of caerulein (50 μg/kg) were administered over 48 hours as described (Carriere et al., 2009). MAP Kinase signaling blockade was accomplished using the MKK inhibitor PD98059 (2.5 mg/kg/day), the p38 inhibitor SB203580 (30 mg/kg/day), or the JNK inhibitor SP600125 (50 mg/kg/day; all Invivogen). Selective NF-κB signaling blockade was accomplished using either the NEMO binding domain inhibitor (1 mg/kg/day, EMD4Biosciences, Gibbstown, N.J.) or the IkB inhibitor Bay11-7082 (1.25 mg/kg/day; Invivogen). […]

TLR7 = target: T1, TLR7 (Mus musculus, UniProt P58681); experiment: TLR7 blockade in caerulein-accelerated pancreatic carcinogenesis in p48Cre;Kras^G12D mice; conditions: caerulein 50 μg/kg, two doses over 48 hours
T1 construct: from tissue; host or cells: whole animal: p48Cre;Kras^G12D mice and WT C57BL/6 mice; TLR7 on pancreatic leukocytes and epithelial cells
T1 sequence (P58681 27-1050): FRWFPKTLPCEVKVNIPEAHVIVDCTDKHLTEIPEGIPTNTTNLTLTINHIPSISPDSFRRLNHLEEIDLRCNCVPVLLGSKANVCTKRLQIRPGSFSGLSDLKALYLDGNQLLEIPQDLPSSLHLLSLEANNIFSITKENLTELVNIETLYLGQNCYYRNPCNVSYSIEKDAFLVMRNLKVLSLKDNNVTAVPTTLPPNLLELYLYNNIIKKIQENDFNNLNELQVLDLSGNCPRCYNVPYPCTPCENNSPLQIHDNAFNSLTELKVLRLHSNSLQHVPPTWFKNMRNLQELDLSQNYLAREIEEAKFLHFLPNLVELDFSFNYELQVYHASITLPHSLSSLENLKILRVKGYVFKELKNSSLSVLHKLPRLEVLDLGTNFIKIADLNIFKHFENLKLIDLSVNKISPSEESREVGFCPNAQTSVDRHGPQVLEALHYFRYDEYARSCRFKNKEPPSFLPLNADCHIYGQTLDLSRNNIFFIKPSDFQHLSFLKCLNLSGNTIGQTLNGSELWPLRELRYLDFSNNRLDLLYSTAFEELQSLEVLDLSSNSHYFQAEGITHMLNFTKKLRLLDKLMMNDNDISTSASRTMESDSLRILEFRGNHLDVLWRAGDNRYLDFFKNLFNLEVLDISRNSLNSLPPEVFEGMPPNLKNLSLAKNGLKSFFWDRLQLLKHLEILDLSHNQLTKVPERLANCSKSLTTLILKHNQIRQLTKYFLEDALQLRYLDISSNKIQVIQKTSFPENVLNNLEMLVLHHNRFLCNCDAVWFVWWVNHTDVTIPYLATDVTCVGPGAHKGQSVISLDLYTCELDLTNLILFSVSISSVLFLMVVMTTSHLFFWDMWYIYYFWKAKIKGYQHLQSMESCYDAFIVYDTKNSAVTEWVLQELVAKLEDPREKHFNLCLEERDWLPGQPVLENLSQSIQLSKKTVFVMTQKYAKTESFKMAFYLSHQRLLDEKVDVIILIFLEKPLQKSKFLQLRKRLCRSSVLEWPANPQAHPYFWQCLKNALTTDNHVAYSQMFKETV

N=C(N)NCCC[C@H](N)C(=O)O [L-arginine]
pancreatic injury [1]: induced mild pancreatic edema and inflammation

COc1cccc(-c2cc(=O)c3ccccc3o2)c1N [PD98059]
effects of TLR7 ligation on fibro-inflammatory pancreatic disease (MAP Kinase): protected from effects of TLR7 ligation

caerulein
pancreatic histology after caerulein alone (TLR7): developed invasive pancreatic adenocarcinoma within an extensive bed of fibro-inflammatory stroma
